Results: patent US11124500B2, “Disubstituted pyrazole compounds” (Eli Lilly and Company, priority 2019, dated 2021)

Legend:
human KHK-C = human KHK-C (Homo sapiens (Human), UniProt P50053); test: KHK enzyme activity assay, human KHK-C (F1P production, RapidFire MS); type: biochemical; conditions: fructose 250 μM, ATP 150 μM; average ± SEM; read-out: hKHK-C IC50
Method: (§1) KHK Enzyme Activity Assay for Human KHK-C and Human KHK-A
(§2) The intrinsic potency for inhibition of KHK C or A activity may be measured using an enzymatic assay which measures the production of FIP. Compounds are prepared in DMSO and tested in a 10-point concentration curve, to create 3-fold serial dilutions of the compounds in a 96-well plate ranging from 20 μM to 1.02 nM. Enzyme is prepared in assay buffer [50 mM 4-(2-hydroxyethyl)piperazine-1-ethanesulfonic acid (HEPES), 10 mM potassium chloride, 100 mM magnesium chloride, 2 mM tris(2-carboxyethyl)phosphine (TCEP), 0.01% n-octyl glucoside] and incubated with compounds at RT for 15 min. The reaction is carried out in 100 μL volumes containing substrate concentrations of fructose (250 μM for KHK-C assay and 1.25 mM for KHK-A assay) and ATP (150 μM for both isoforms); which are further incubated at RT for 20 min. The reaction is then halted by the addition of stop buffer; consisting of 0.2% formic acid and 1 μg/ml ^13C6-fructose-6-phosphate (^13C6-F6P) internal standard. Plates are stored in −20° C. until RapidFire MS analysis.
(§3) RapidFire MS Analysis for Quantitation of F1P
(§4) An Agilent 300 RapidFire automated extraction system (Agilent, Santa Clara, Calif.) with three HPLC quaternary pumps is coupled to an Agilent 6495 triple quadrupole mass spectrometer (Agilent Technologies, Santa Clara, Calif.) equipped with an electrospray ionization (ESI) interface source. The RapidFire Mass Spec system is equipped with a reusable RapidFire C18 (type C) solid-phase extraction (SPE) cartridge (G9205 Å).
(§5) Solvent A, used for sample loading and washing, is 6 mM octylamine (Acros Organics 129495000) brought to pH 5.0 using acetic acid. Solvent B, used for sample elution, is 20% water in ACN containing 0.1% formic acid. Samples are sequentially analyzed by aspirating 10 μL onto the collection loop under vacuum directly from multiwell plates. The 10 μL of sample is loaded onto the C18 cartridge and washed using solvent A at a flow rate of 1.25 mL/min for 5000 ms. The retained analytes are then eluted to the mass spectrometer using solvent B at a flow rate of 1.25 mL/min for 5000 ms. The system is re-equilibrated using solvent at flow rate of 1.25 mL/min for 2000 ms.
(§6) The triple quadrupole mass spectrometer is equipped with an ESI source and analytes are monitored using selected reaction monitoring (SRM) in negative mode [M−H]−. F1P is monitored at m/z 259.02/96.9 and ^13C6-fructose-6-phosphate is monitored at m/z 264.99/97. The area ratio values for F1P is calculated using ^13C6-fructose-6-phospate as internal standard.

human KHK-A = human KHK-A (Homo sapiens (Human), UniProt P50053); test: KHK enzyme activity assay, human KHK-A (F1P production, RapidFire MS); type: biochemical; conditions: fructose 1.25 mM, ATP 150 μM; average ± SEM; read-out: hKHK-A IC50
Method: as §1, §2, §3, §4, §5, §6

[1] = Pharmacokinetics in Sprague Dawley rats; type: in vivo; conditions: plasma, rat, fasted; for bioavailability: PO 2 or 3 mg/kg vs IV 1 mg/kg
Method: (§7) Liquid Chromatography with Tandem Mass Spectrometry (LC-MS/MS) Method for Pharmacokinetic Assays: Samples are extracted using a protein precipitation by adding 180 μL of MeOH:ACN (1:1, v/v) containing an internal standard to 50 μL of plasma. Samples are then diluted with MeOH:Water (1:1, v/v) to get concentrations within standard curve range. Diluted samples are analyzed by LC-MS/MS using a Sciex API 4000 triple quadrupole mass spectrometer (Applied Biosystems/MDS; Foster City, Calif.) equipped with a TurboIonSpray interface, and operated in positive ion mode. The analytes are chromatographically separated using a ECHELON C18 4 um 20×2.1 mm column. LC conditions are Water/1 M ammonium bicarbonate, (2000:10, v/v) (Mobile Phase A), and MeOH/1 M ammonium bicarbonate, (2000:10, v/v) (Mobile Phase B).
Pharmacokinetics in Sprague Dawley Rats
(§8) The compound is administered by a single oral (PO; 2 or 3 mg/kg; volume of 10 mL/kg) or intravenous (IV; 1 mg/kg; volume of 1 mL/kg) dose in vehicle. Blood is collected from each animal at multiple time points between 0 and up to 48 hours post-dosage. The plasma concentrations of Example 1 and Example 2 are determined by a LC-MS/MS method as described above.

Pharmacokinetics in dogs = type: in vivo; conditions: beagle, plasma, dog, fed; for bioavailability: PO 2 or 3 mg/kg vs IV 1 mg/kg
Method: as §7
as §8, with “2” for “10”, “72” for “48”

[2] = administered for 6 weeks, subjects with NAFLD; cited from earlier work

Sequence of human KHK-A (P50053 other isoform, or with tags, fused parts or gaps): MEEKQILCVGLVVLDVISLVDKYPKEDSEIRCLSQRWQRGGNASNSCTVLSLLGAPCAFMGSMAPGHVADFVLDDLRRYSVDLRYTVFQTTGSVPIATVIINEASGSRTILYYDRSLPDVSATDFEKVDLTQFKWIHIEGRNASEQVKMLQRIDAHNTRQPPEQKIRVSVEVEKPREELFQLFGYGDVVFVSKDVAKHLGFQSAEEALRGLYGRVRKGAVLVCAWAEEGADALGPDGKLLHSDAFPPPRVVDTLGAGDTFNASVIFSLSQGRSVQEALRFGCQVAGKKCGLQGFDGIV
Sequence of human KHK-C (P50053 whole entry): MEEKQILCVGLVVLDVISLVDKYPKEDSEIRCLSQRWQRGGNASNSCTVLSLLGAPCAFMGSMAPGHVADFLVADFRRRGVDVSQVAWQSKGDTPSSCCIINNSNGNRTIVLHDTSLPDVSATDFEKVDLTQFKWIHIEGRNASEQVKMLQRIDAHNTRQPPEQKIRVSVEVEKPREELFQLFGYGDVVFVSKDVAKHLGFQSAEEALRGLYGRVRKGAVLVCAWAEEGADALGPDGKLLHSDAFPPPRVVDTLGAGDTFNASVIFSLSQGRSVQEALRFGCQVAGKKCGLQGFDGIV

`C[C@H]1CCN1c1nc(-c2cnn(CC(=O)N3CCNCC3)c2)cc(C(F)(F)F)n1` [Example 1, 2-[4-[2-[(2S)-2-Methylazetidin-1-yl]-6-(trifluoromethyl)pyrimidin-4-yl]pyrazol-1-yl]-1-piperazin-1-yl-ethanone] gave an IC50 (human KHK-C) of 20.7 ± 3.88 nM, an IC50 (human KHK-A) of 24.2 ± 2.9 nM and a bioavailability [1] of 83%. The clearance ([1]; single IV dose 1 mg/kg) was 5.86 mL/min/kg, the half-life ([1]; single IV dose 1 mg/kg) was 12.8 h and the half-life ([1]; single PO dose 2 or 3 mg/kg) was 12.9 h. It also gave a bioavailability (Pharmacokinetics in dogs) of 87%, a clearance (Pharmacokinetics in dogs; single IV dose 1 mg/kg) of 3.41 mL/min/kg and a half-life (Pharmacokinetics in dogs; single IV dose 1 mg/kg) of 28 h. The half-life (Pharmacokinetics in dogs; single PO dose 2 or 3 mg/kg) was 36.6 h.

Work on `OC[C@H]1CCN1c1nc(-c2cnn(C3CCNCC3)c2)cc(C(F)(F)F)n1` [Example 2, [(2R)-1-[4-[1-(4-Piperidyl)pyrazol-4-yl]-6-(trifluoromethyl)pyrimidin-2-yl]azetidin-2-yl]methanol] yielded an IC50 (human KHK-C) of 134 ± 43.1 nM, an IC50 (human KHK-A) of 98.2 ± 25 nM and a bioavailability [1] of 95%. For the same compound, the clearance ([1]; single IV dose 1 mg/kg) was 56.4 mL/min/kg, the half-life ([1]; single IV dose 1 mg/kg) was 4.29 h and the half-life ([1]; single PO dose 2 or 3 mg/kg) was 5.12 h. The bioavailability (Pharmacokinetics in dogs) was ~100%, the clearance (Pharmacokinetics in dogs; single IV dose 1 mg/kg) was 19.6 mL/min/kg and the half-life (Pharmacokinetics in dogs; single IV dose 1 mg/kg) was 10.3 h. It also gave a half-life (Pharmacokinetics in dogs; single PO dose 2 or 3 mg/kg) of 9.79 h.

`CN1CC(n2cc(-c3cc(C(F)(F)F)nc(N4CC[C@@H]4CO)n3)cn2)C1` [Example 36, [(2R)-1-[4-[1-(1-Methylazetidin-3-yl)pyrazol-4-yl]-6-(trifluoromethyl)pyrimidin-2-yl]azetidin-2-yl]methanol] showed an IC50 (human KHK-C) of 10 nM and an IC50 (human KHK-A) of 3.98 nM.

For `C[C@H]1CCN1c1nc(N2C[C@@H]3[C@@H](CC(=O)O)[C@@H]3C2)cc(C(F)(F)F)n1` [PF-06835919], the “whole liver fat (magnetic resonance imaging-proton density fat fraction)” value [2] is given as “reduces whole liver fat”.
